Test results reported in ChEMBL document CHEMBL5113491, “Discovery of N-benzylarylamide derivatives as novel tubulin polymerization inhibitors capable of activating the Hippo pathway” (Eur J Med Chem, 2022).
Calls of active or inactive are those of the source. The rule behind the calls is not given here.

Assays:
[1] = tested on: MGC-803; assay: Induction of apoptosis in human MGC-803 cells assessed as increase in cleaved caspase 9 expression at 15 to 45 nmol/L measured after 48 hrs by Western blot analysis; format: functional, cell-based; settings: dose 15-45 nmol/L
[2] = molecular target: T1, Tubulin (Homo sapiens) (UniProt P68371+Q9H4B7+P0DPH7+P68366+Q13509+Q71U36+P04350+Q3ZCM7+P07437+P68363+Q9BQE3+Q6PEY2+Q13885+Q9BVA1+Q9BUF5); assay: Induction of microtubule disruption in human SGC-7901 cells at 25 nmol/L measured after 48 hrs by DAPI staining based immunofluorescence assay; format: cell-based
[3] = tested on: SGC-7901; assay: Downregulation of TAZ protein expression in human SGC-7901 cells measured after 48 hrs by Western blot analysis; format: functional, cell-based; settings: dose 15-45 nmol/L, DDE = dose-dependent effect
[4] = tested on: SGC-7901; assay: Induction of morphological changes in human SGC-7901 cells assessed as cell fragmentation at 15 to 45 nmol/L measured after 48 hrs by bright field microscopic analysis; format: functional, cell-based; settings: dose 15-45 nmol/L
[5] = tested on: Huh-7; assay: Antiproliferative activity against human Huh-7 cells assessed as inhibition of cell growth measured after 48 hrs by MTT assay; format: functional, cell-based; settings: Huh-7, 48 h
[6] = tested on: SGC-7901; assay: Induction of cell cycle arrest in human SGC-7901 cells assessed as increase in G2/M phase cells measured after 24 hrs by flow cytometry; format: functional, cell-based; settings: dose 15-45 nmol/L, DDE = dose-dependent effect
[7] = tested on: SGC-7901; assay: Induction of morphological changes in human SGC-7901 cells assessed as change in concentration of nuclei at 15 to 45 nmol/L measured after 48 hrs by calcein-AM/PI staining based microscopic analysis; format: functional, cell-based; settings: dose 15-45 nmol/L
[8] = tested on: SGC-7901; assay: Antiproliferative activity against human SGC-7901 cells assessed as inhibition of cell growth measured upto 72 hrs by MTT assay; format: functional, cell-based; settings: dose 15-45 µmol/L, DDE = dose-dependent effect
[9] = tested on: MGC-803; assay: Induction of G2/M phase cell cycle arrest in human MGC-803 cells assessed as decrease in cyclin A2 expression at 15 to 45 nmol/L measured after 48 hrs by Western blot analysis; format: functional, cell-based; settings: dose 15-45 nmol/L
[10] = tested on: MGC-803; assay: Induction of cell cycle arrest in human MGC-803 cells assessed as increase in G2/M phase cells at 45 nmol/L measured after 24 hrs by flow cytometry (reference value: 19.38%); format: functional
[11] = tested on: HUVEC; assay: Cytotoxicity against human HUVEC cells assessed as reduction in cell viability at 5 to 40 nM measured after 48 hrs by MTT assay; format: toxicity, cell-based; settings: 0.04 µM, dose 5-40 nM
[12] = tested on: SMMC-7721; assay: Antiproliferative activity against human SMMC-7721 cells assessed as inhibition of cell growth measured after 48 hrs by MTT assay; format: functional, cell-based; settings: SMMC-7721, 48 h
[13] = molecular target: T1, Tubulin (Homo sapiens); assay: Induction of microtubule disruption in human MGC-803 cells measured after 48 hrs by DAPI staining based immunofluorescence assay; format: cell-based; settings: dose 15-45 nmol/L, DDE = dose-dependent effect
[14] = tested on: MGC-803; assay: Inhibition of colony formation in human MGC-803 cells measured after 7 days; format: functional, cell-based; settings: dose 6-30 nmol/L, time 7.0 day, DDE = dose-dependent effect
[15] = tested on: GES1; assay: Cytotoxicity against human GES1 cells assessed as reduction in cell viability at 5 to 40 nM measured after 48 hrs by MTT assay; format: toxicity, cell-based; settings: ges1, 48 h, 0.04 µM, dose 5-40 nM
[16] = tested on: SGC-7901; assay: Downregulation of YAP protein expression in human SGC-7901 cells measured after 48 hrs by Western blot analysis; format: functional, cell-based; settings: dose 15-45 nmol/L, DDE = dose-dependent effect
[17] = tested on: SGC-7901; assay: Induction of apoptosis in human SGC-7901 cells assessed as decrease in c-IAP1 protein expression measured after 48 hrs by Western blot analysis; format: functional, cell-based; settings: dose 15-45 nmol/L, DDE = dose-dependent effect
[18] = tested on: SGC-7901; assay: Induction of apoptosis in human SGC-7901 cells assessed as decrease in Mcl-1 protein expression measured after 48 hrs by Western blot analysis; format: functional, cell-based; settings: dose 15-45 nmol/L, DDE = dose-dependent effect
[19] = tested on: MGC-803; assay: Antiproliferative activity against human MGC-803 cells assessed as inhibition of cell growth measured upto 72 hrs by MTT assay; format: functional, cell-based; settings: dose 15-45 µmol/L, DDE = dose-dependent effect
[20] = tested on: MGC-803; assay: Induction of morphological changes in human MGC-803 cells assessed as change in concentration of nuclei at 15 to 45 nmol/L measured after 48 hrs by DAPI staining based microscopic analysis; format: functional, cell-based; settings: dose 15-45 nmol/L
[21] = tested on: MGC-803; assay: Induction of apoptosis in human MGC-803 cells assessed as decrease in c-IAP1 protein expression measured after 48 hrs by Western blot analysis; format: functional, cell-based; settings: dose 15-45 nmol/L, DDE = dose-dependent effect
[22] = organism: Sus scrofa; assay: (§1) Inhibition of porcine brain microtubule polymerization measured after 1 hrs by fluorescence based assay; settings: DDE = dose-dependent effect
[23] = as §1; set-up: species or system Sus scrofa
[24] = tested on: MCF7; assay: Antiproliferative activity against human MCF7 cells assessed as inhibition of cell growth measured after 48 hrs by MTT assay; format: functional, cell-based; settings: MCF7, 48 h
[25] = tested on: DU-145; assay: Antiproliferative activity against human DU-145 cells assessed as inhibition of cell growth measured after 48 hrs by MTT assay; format: functional, cell-based; settings: DU-145, 48 h
[26] = molecular target: T1, Tubulin (Homo sapiens); assay: Induction of microtubule disruption in human MGC-803 cells at 25 nmol/L measured after 48 hrs by DAPI staining based immunofluorescence assay; format: cell-based
[27] = molecular target: Tubulin beta (Homo sapiens) (UniProt P68371+Q9H4B7+Q13509+P04350+Q3ZCM7+P07437+Q13885+Q9BVA1+Q9BUF5+A6NNZ2); assay: Binding affinity to beta-tubulin colchicine binding site in human MGC-803 cells assessed as inhibition of EBI-beta-tubulin adduct band formation preincubated for 2 hrs followed by EBI addition and measured after 2 hrs by EBI competition based Western blotting analysis; format: cell-based; settings: dose 1-10 µM, time 4.0 hrs, DDE = dose-dependent effect
[28] = tested on: A549; assay: Antiproliferative activity against human A549 cells assessed as inhibition of cell growth measured after 48 hrs by MTT assay; format: functional, cell-based; settings: A549, 48 h
[29] = tested on: SGC-7901; assay: Induction of G2/M phase cell cycle arrest in human SGC-7901 cells assessed as decrease in p-cdc2 (T161) expression at 15 to 45 nmol/L measured after 48 hrs by Western blot analysis; format: functional, cell-based; settings: dose 15-45 nmol/L
[30] = tested on: MGC-803; assay: Induction of G2/M phase cell cycle arrest in human MGC-803 cells assessed as increase in p-Histone H3 expression at 15 to 45 nmol/L measured after 48 hrs by Western blot analysis; format: functional, cell-based; settings: dose 15-45 nmol/L
[31] = tested on: MGC-803; assay: Antiproliferative activity against human MGC-803 cells assessed as inhibition of cell growth measured after 48 hrs by MTT assay; format: functional, cell-based; settings: MGC-803, 48 h
[32] = tested on: HGC-27; assay: Antiproliferative activity against human HGC-27 cells assessed as inhibition of cell growth measured after 48 hrs by MTT assay; format: functional, cell-based; settings: HGC-27, 48 h
[33] = tested on: SGC-7901; assay: Induction of morphological changes in human SGC-7901 cells assessed as change in concentration of nuclei at 15 to 45 nmol/L measured after 48 hrs by DAPI staining based microscopic analysis; format: functional, cell-based; settings: dose 15-45 nmol/L
[34] = tested on: HCT-116; assay: Antiproliferative activity against human HCT-116 cells assessed as inhibition of cell growth measured after 48 hrs by MTT assay; format: functional, cell-based; settings: HCT-116, 48 h
[35] = tested on: SGC-7901; assay: Activation of MST in human SGC-7901 cells assessed as increase in MST phosphorylation measured after 48 hrs by Western blot analysis; format: cell-based; settings: filed as activator, dose 15-45 nmol/L, DDE = dose-dependent effect
[36] = Cytotoxicity against human GES1 cells assessed as reduction in cell viability measured after 48 hrs by MTT assay; format: toxicity, cell-based
[37] = tested on: MGC-803; assay: Downregulation of TAZ protein expression in human MGC-803 cells measured after 48 hrs by Western blot analysis; format: functional, cell-based; settings: dose 15-45 nmol/L, DDE = dose-dependent effect

SMILES: C/C=C/C(=O)N(Cc1ccc(OC)c(O)c1)c1cc(OC)c(OC)c(OC)c1
- Activity [1]: Active
- Activity [2]: Active
- Activity [3]: Dde
- Activity [4]: Active
- IC50 [5]: 60 nM
- Activity [6]: Dde
- Activity [7]: Active
- Activity [8]: Dde
- Activity [9]: Active
- Activity [10]: 76.97%
- Activity [11]: Non-Toxic
- IC50 [12]: 43 nM
- Activity [13]: Dde
- inhibition [14]: Dde
- Activity [15]: Non-Toxic
- Activity [16]: Dde
- Activity [17]: Dde
- Activity [18]: Dde
- Activity [19]: Dde
- Activity [20]: Active
- Activity [21]: Dde
- inhibition [22]: Dde
- IC50 [23]: 920 nM
- IC50 [24]: 67 nM
- IC50 [25]: 81 nM
- Activity [26]: Active
- Activity [27]: Dde
- IC50 [28]: 59 nM
- Activity [29]: Active
- Activity [30]: Active
- IC50 [31]: 27 nM
- IC50 [32]: 33 nM
- Activity [33]: Active
- IC50 [34]: 55 nM
- Activity [35]: Dde
- IC50 at 48 h [36]: 768 nM
- Activity [37]: Dde
